Assay [1] deals with CD-1 mice. The assay is described as follows: Formalin test. The following applies: 5 mg/kg s.c., positive control. The class given is in vivo, mouse. How it is done:
One of the most clinically predictive screening models of acute pain is the formalin test in mice (LeBars et al., 2001). In this paradigm, originally described by Dubuisson and Dennis (1977), a diluted solution of formalin is injected into the plantar surface of a subject's (rat or mouse) rear paw and nociceptive behavior is measured; for instance, licking and biting of the injected paw. Two phases of the response are observed. First an early phase, starting immediately after injection and lasting 5-10 minutes, followed by a late phase that can last from 15-60 minutes after injection. Nociceptive response is attributed to direct chemical stimulation in the early phase and inflammation/persistent pain in the later phase (Dubuisson and Dennis, 1977). The response in the late phase also depends on changes in processing of information in the spinal cord due to the afferent barrage during the early phase (Coderre et al., 1990). An advantage of the test is that two different types of stimuli are employed in the same assay to study the possibility of varying analgesic effects of a drug in the two phases of the test (Tjølsen and Hole, 1997).
Subjects (adult male CD-1 mice (Charles River, Raleigh, N.C.) weighing approximately 20-25 grams) were removed from their home cage and weighed, then placed in a clear Plexiglas™ observation box for an acclimation period of 20-30 minutes. Mice were then removed from the observation chambers and (2S,3R)—N-2-((3-pyridinyl)methyl)-1-azabicyclo[2.2.2]oct-3-yl)-3,5-difluorobenzamide (as the hydrochloride salt in 0.9% saline) (1, 3 or 10 mg/kg s.c. (calculated with respect to the free base)), morphine (5 mg/kg; s.c.) or 0.9% saline vehicle was administered subcutaneously in a volume of 1 mL/kg. Mice were then returned to the chamber for the predetermined pretreatment time of 30 minutes for (2S,3R)—N-2-((3-pyridinyl)methyl)-1-azabicyclo[2.2.2]oct-3-yl)-3,5-difluorobenzamide and morphine.
After the test compound pretreatment time, the animals were injected with formalin solution (2.5% derived as a 1:4 dilution of 10% phosphate buffered formalin solution (Sigma):distilled water). The subject's assigned paw was gasped gently and formalin solution was injected into the paw intra-dermally in the middle on the dorsal side. Once injected, the subject was immediately returned to its observation chamber and a timer was started to mark the beginning of Phase I. Each subject was videotaped for the entire 40-minute session. […] The time spent licking during that 1 min interval was recorded, and the presence or absence of paw favoring was noted.
For data analyses, phase I of the test was defined as 0 to 5 minutes after formalin injection, and phase II was defined as 20 to 40 minutes after formalin injection. The time spent licking during the 1 minute intervals during those time frames was recorded and graphed as mean±S.E.M. For comparisons across treatment groups, 1-way analyses of variance (ANOVAs) were performed for each phase of the session with treatment as the […] variable. Post-hoc analyses were performed when appropriate to determine specific group differences.

Assay [2] concerns Sprague-Dawley rats. The assay is described as follows: Complete Freund's adjuvant (CFA)-induced thermal hyperalgesia. The class given is in vivo, rat. The following applies: 3 mg/kg s.c., 1 hour after dosing, reference standard. As to the method:
Injection of complete Freund's adjuvant (CFA) in rats is commonly used to evaluate compounds with potential for use as drugs in treatment of mono-arthritis (osteo-arthritis) and other inflammatory conditions. Signs of hyperalgesia develop within 24 h (Schaible and Grubb, 1993).
(2S,3R)—N-2-((3-pyridinyl)methyl)-1-azabicyclo[2.2.2]oct-3-yl)-3,5-difluorobenzamide was evaluated for possible analgesia effect in the CFA-induced thermal hyperalgesia test in rats using methods similar to those described by Walker and colleagues (2003). Briefly, adult male Sprague-Dawley rats (BioLasco, Taiwan) weighing 180±20 g on receipt were randomly assigned to treatment groups of n=8 per group. Animals each received a sub plantar injection (0.1 mL) of CFA (DIFCO, 264010; 0.1% solution) to the right hind paw at 24 h prior to experimental testing. Thermal hyperalgesia was tested using a Paw/Tail stimulator analgesia meter (IITC Model-336G, IITC, USA) with a thermally regulated glass floor set at 30° C. […] The time required for the animal to withdraw the paw from the thermal stimulus was automatically recorded. […]
Twenty-four hours after CFA injection, subjects were pre-selected (for clear presence of thermal hyperalgesia) for experimentation only if the latency to withdrawal was less than 75% of the baseline. […] The post-treatment level of thermal hyperalgesia was then measured at 60 minutes post-treatment. […]

As for `CN1CC[C@]23c4c5ccc(O)c4O[C@H]2[C@@H](O)C=C[C@H]3[C@H]1C5` [morphine, reference compound], in assay [1], the “efficacy, phase I” value is “efficacious” and the “efficacy, phase II” value is “efficacious”. Besides, the “analgesic effect on CFA-induced thermal hyperalgesia” value in assay [2] is recorded as “significant analgesic activity”.

For the origin of these results see US20110312961A1, “2,5-Disubstituted Morpholine Orexin REceptor Antagonists” (priority 2008, published 2011).
